Source: patent publication US4156009A, “Diazepine derivatives” (Hexachimie, priority 1977, dated 1979)

Tests used:
[1] = tested on: Shay ulcers; assay: Activity on Shay ulcers (pylorus ligation); type: in vivo, rat (male, OFA strain); details: 2 hours after binding; for Pepsin / pH / Volume / Acidity free / Acidity total: gastric liquid; for Acidity free / Acidity total: potentiometry; for Ulcers: number in the rumen; for Acidity free ds the secretion / Acidity total ds the secretion / Pepsin ds the secretion: whole secretion
Experimental: Male rats of the OFA strain, weighing 190-210 g, receive a solution of 20% glucose and […] sodium chloride as their only food for 3 days.
Under an ether anaesthetic, the pylorus is tied, while taking care not to include blood vessels in the binding. The tested product is administered intraperitoneally and the stomach is removed 2 hours after the binding. The gastric liquid is collected and the following parameters are measured:
free acidity (potentiometry)
total acidity (potentiometry)
peptic activity (hydrolysis of albumen of oxen and measurement of the tyrosine liberated).
The number of ulcers in the rumen are counted.

[2] = tested on: ulcers caused by phenylbutazone; assay: Protective activity as regards ulcers caused by phenylbutazone; type: in vivo, rat (male, OFA strain); details: for Ulceration Index: maximum index 300
Experimental: Male rats, of the OFA strain, weighing 160-180 g are placed on a diet of water 24 hours before the oral administration of the product studied (1 cm^3 /100 g). 30 minutes later, the rats receive 150 mg/kg phenylbutazone (1 cm^3 /100 g) orally.
The stomachs are removed 6 hours after the last treatment. Each stomach is classified according to the following scale:
The average of the results for a batch, multiplied by the percentage of rats having ulcers in this batch, gives an ulceration index whose maximum is 300.
The following Table I gives the ulceration indices and the protective dose 50 (PD50) which corresponds to the index 150.

[3] = Acute toxicity; parameters: species or system rat; details: in vivo
[4] = 8 mg/kg intraperitoneally, p < 0.05
[5] = 16 mg/kg intraperitoneally, p < 0.01
[6] = 32 mg/kg intraperitoneally, p < 0.001
[7] = 32 mg/kg intraperitoneally, p < 0.01

CN1C(=O)CN=C(c2ccccc2)c2c(C3CC3)csc21 [Example 6, 6-Cyclopropyl-1,3-dihydro-1-methyl-5-phenyl-2-oxo-2H-thieno[2,3-e]diazepine]
Pepsin ([1]; 8 mg/kg intraperitoneally, ns): 0.67 mg/mL | pH ([1]; 8 mg/kg intraperitoneally, ns): 1.19 | Volume [1, 4]: 4.0 cm^3 | Acidity free ([1]; 8 mg/kg intraperitoneally, ns): 91 mEq/l | Acidity total ([1]; 8 mg/kg intraperitoneally, ns): 109 mEq/l | Pepsin ([1]; 16 mg/kg intraperitoneally, ns): 0.67 mg/mL | pH ([1]; 16 mg/kg intraperitoneally, ns): 1.21 | Volume [1, 5]: 2.7 cm^3 | Acidity free ([1]; 16 mg/kg intraperitoneally, ns): 82 mEq/l | Acidity total ([1]; 16 mg/kg intraperitoneally, ns): 102 mEq/l | Pepsin ([1]; 32 mg/kg intraperitoneally, ns): 0.64 mg/mL | Volume [1, 6]: 1.7 cm^3 | pH ([1]; 32 mg/kg intraperitoneally, p < 0.05): 1.67 | Acidity free [1, 7]: 56.5 mEq/l | Acidity total [1, 7]: 80 mEq/l | Ulcers ([1]; 8 mg/kg intraperitoneally): 0 | Ulcers ([1]; 16 mg/kg intraperitoneally): 0 | Ulcers ([1]; 32 mg/kg intraperitoneally): 0 | Acidity free ds the secretion ([1]; 8 mg/kg intraperitoneally, ns): 388 mEq/l | Acidity total ds the secretion ([1]; 8 mg/kg intraperitoneally, ns): 459 mEq/l | Pepsin ds the secretion [1, 4]: 2.66 mg | Acidity free ds the secretion [1, 5]: 275 mEq/l | Acidity total ds the secretion [1, 5]: 335 mEq/l | Pepsin ds the secretion [1, 5]: 1.83 mg | Acidity free ds the secretion [1, 6]: 145 mEq/l | Acidity total ds the secretion [1, 6]: 189 mEq/l | Pepsin ds the secretion [1, 6]: 1.14 mg | Ulceration Index ([2]; 16 mg/kg orally): 240 | Ulceration Index ([2]; 32 mg/kg orally): 179 | Ulceration Index ([2]; 64 mg/kg orally): 62 | Ulceration Index ([2]; 128 mg/kg orally): 29 | ED50 ([2]; Rattus norvegicus, po, orally, corresponds to ulceration index 150, read-out: PD50 (protective dose 50)): 39 mg/kg | LD50 ([3]; po, orally in the rat, read-out: lethal dose LD50): 915 mg/kg | selectivity ratio ([3]; LD50 / PD50, oral, rat, read-out: ratio of toxicity/activity or therapeutic index): ~23
